Results from patent publication US10172911B2, “Methods of modulating erythropoiesis with arginine vasopressin receptor 1B molecules” (The United States of America, as represented by the …, priority 2013, dated 2019).
Entries after “also recorded” stand apart in the source; their conditions may differ.

What was measured:
Human BMSCs = assay: BMSC signalling (ERK phosphorylation, cAMP, intracellular Ca2+); format: cell-based; conditions: BMSC cultures
Description: Human BMSCs were loaded with Fura-2 and the cells were stimulated with AVP, or OXT.
For cAMP quantitation, 8×10^5 per well human BMSCs were plated in 6 well plates and left to attach overnight. Next day, the medium was changed and the cells were stimulated with AVP or deamino-Cys^1, D-Arg^8 AVP (DDAVP, a V2 receptor agonist) at 10^−6 M for 4 minutes. Cells were washed with PBS and lysed with R&D cell lysis buffer. Cyclic AMP was measured with the R&D cAMP Parameter assay kit (R&D Systems, Minneapolis, Minn.) according to manufacturer's instructions. Total protein concentrations of the cell lysates were measured using the Micro BCA Protein Assay kit (Pierce, Rockford, Ill.) and cAMP amount was normalized to 100 μg of total protein.

β-catenin = β-catenin immunostaining of AVP-stimulated human CD34+ cells; format: cell-based; conditions: 10^−10 M, 24 hours
Description: (§1) FIGS. 3A-3D show studies of signaling pathways. FIG. 3A provides results from CFU assays showing E-CFU and GM-CFU numbers/1000 plated cells. […] Error bars represent means±SD * p<0.05, ** p<0.01, unpaired t-test. […] The cells were then fixed with 4% paraformaldehyde and washed before immunostaining. Following permeabilization with Triton-X 100 a primary antibody to β-catenin was applied followed by a fluorescent secondary antibody. The β-catenin translocated to the nucleus at the 10^−10 AVP concentration confirming the activation of the Wnt pathway. Scale: 10 μm. […] Using Q-PCR to detect changes in genes that reflect Wnt pathway activation, increases in CCND1, MYC and LEF1 in response to AVP stimulation were observed.
FIGS. 8A-8C show AVP stimulation results in the nuclear translocation of β-catenin affecting the Wnt pathway. […] The cells were then fixed with 4% paraformaldehyde and washed before immunostaining. Following permeabilization with Triton-X 100, a primary antibody to β-catenin was applied followed by a fluorescent secondary antibody. The β-catenin translocated to the nucleus at the 10^−10 M AVP concentration confirming the activation of the Wnt pathway. Scale: 10 μm. FIG. 8B CFU assays showing E-CFU and GM-CFU numbers/1000 plated cells. […] Error bars represent means±SD * p<0.05, ** p<0.01, unpaired t-test.

Wnt pathway = assay: Q-PCR and microarray of Wnt pathway genes in AVP-stimulated CD34+ cells; format: cell-based, human
Description: as §1
The resultant cDNA was amplified with QuantiTect SYBR Green RT-PCR kit (Qiagen) or with SYBR Green Supermix (Bio-Rad, Hercules, Calif.). For qPCR, cDNA (2 μls of cDNA for AVP expression and […] for OXT or beta-actin expression) was amplified with QuantiTect SYBR Green RT-PCR kit and the expression data were normalized to human beta-actin expression.

mice = assay: Single intraperitoneal AVP injection, bone marrow populations 16 hours later; format: in vivo, mouse; conditions: i.p. 100 μg/kg, bone marrow 16 hours later
Description: Short-term effect of a single intraperitoneal AVP injection: [Arg8]-Vasopressin (Ana-spec) (100 μg/kg body weight) together with 20 mg/kg body weight o-phenantroline (Sigma-Aldrich) or vehicle PBS with 20 mg/kg body weight o-phenantroline. 16 hours later bone marrow (two hind limbs) and spleen cells were obtained to study the distribu-tion of HSCs and multipotent progenitors (MPP) as well as intermediate lineage-com-mitted progenitors and the erythroid populations as described before (n=5/group) (Wilson et al. Cell 135, 1118-1129, doi:10.1016/j.cell.2008.10.048 (2008); Pronk, C. J. et al. Cell Stem Cell 1, 428-442, doi:10.1016/j.stem.2007.07.005 (2007); Weissman, I. L. Cell 100, 157-168 (2000). Serial AVP injections: Mice (n=8-9) were injected ip. 2 times/day with AVP 100 μg/kg body weight or PBS for 6.5 days. After day 6.5, mice were euthanized and the erythroid populations (CD71^+, Ter119^+) in spleen and bone marrow were analyzed (Cheshier, S. H. et al., Stem Cells Dev 16, 707-717, doi:10.1089/scd.2007.0017 (2007).

[1] = test system: CD34^+ cells from healthy donors; assay: CFU assay (E-CFU, GM-CFU) of human CD34+ cells in Methocult; format: cell-based; conditions: per 1000 plated CD34+ cells; 10^−8 M
Description: CD34^+ cells from healthy donors were plated into semi-solid methylcellulose medium (Methocult) containing hematopoietic factors (GM-CSF 5 ng/ml, IL-3 5 ng/ml, SCF 50 ng/ml, EPO 2.5 U/ml).
The number of erythroid colony forming units (E-CFU) and granulocyte-macrophage colony forming units (GM-CFU) were determined based on morphological criteria on 7th and 14th days in culture.

[2] = AVP stimulated CD34+ cells vs control cells

## NC(=O)CC[C@@H]1NC(=O)[C@H](Cc2ccccc2)NC(=O)[C@H](Cc2ccc(O)cc2)NC(=O)[C@@H](N)CSSC[C@@H](C(=O)N2CCC[C@H]2C(=O)N[C@@H](CCCN=C(N)N)C(=O)NCC(N)=O)NC(=O)[C@H](CC(N)=O)NC1=O [AVP, [Arg8]-Vasopressin]
Human BMSCs
  ERK phosphorylation: induced ERK phosphorylation
Human BMSCs; 10^−6 M for 4 minutes
  cyclic AMP: increase in cyclic AMP
β-catenin
  nuclear translocation of β-catenin: drives nuclear translocation of β-catenin; also recorded: had this effect
Wnt pathway; [2]
  LEF1 RNA: an increase (statistically not significant)
  MYC RNA: significantly more
  cyclin D1 (CCND1) RNA: significantly more
Wnt pathway; single microarray study
  difference in Wnt pathway genes (CDON, DKK1, DPP10, FZD7 up; CDKN2A, FST, KLF5 down): over two-fold difference
mice
  number of HSCs and early multipotent progenitors (MPPs): No difference was detected
  number of red blood cell producing progenitors and blast cells (CMP, MEP, proerythroblast, erythroblasts): statistically significant increase
[1]
  erythroid-colony forming unit (E-CFU) numbers: significantly increased; also recorded: increased erythroid colony formation
  granulocyte macrophage-colony forming unit (GM-CFU) numbers: increased both E-CFU and GM-CFU in another
